Reference: PMC12041881, “Tailored phenyl ureas eradicate drug-resistant Mycobacterium tuberculosis by targeting mycolic acid cell wall assembly” (Chemical Science, 2025)
Values after ≈ are worked out from the molar mass of the structure shown. “Also recorded” adds a separate entry of the source. Where two headings read alike, the source gives them in different places.

Experiments:
M. tuberculosis H37Ra = test: microbe, parasite or virus in culture; format: cell-based, Mycobacterium tuberculosis; conditions: for MIC: Mycobacterium tuberculosis, H37RA, read-out: MIC MTB H37Ra
[1] = system: three bacterial strains from the mouse microbiota (Oligo-Mouse-Microbiota); test: MIC measurements in strains from the Oligo-Mouse-Microbiota; format: cell-based
physchem = conditions: aqueous buffer, kinetic from dmso stock
MmpL3 = MmpL3 (Mycobacterium tuberculosis, UniProt P9WJV5); format: cell-based, M. tuberculosis
[2] = system: probe-bound proteins in M. tuberculosis H37Ra cells; format: binding; conditions: for competition of 227-p1 labelling of EphF and EphD: 5 μM 227-p1, competitor in excess (25 μM 227)
WT M. tuberculosis H37Rv = test: microbe, parasite or virus in culture; format: cell-based
HeLa cells = test: cells; format: cell-based; conditions: Homo sapiens
[3] = system: M. tuberculosis H37Ra cells; format: cell-based
in vitro = conditions: mouse, microsomes
in vivo [4] = test: in vivo; parameters: species or system CD-1 female mice; conditions: female, CD-1, mouse; for bioavailability: F
Description: (DMA), and 95% (20% Solutol HS15 in water).
Blood timepoints were taken
liquid chromatography coupled to tandem mass spectrometry. Pharmacokinetic parameters were
LC-MS/MS analytical methods for PK studies
to create standard curves solutions.
10µLs of control, standard, or
internal standards Labetalol (Sigma Aldrich). Extracts were vortexed for 5 minutes and centrifuged at
with 75 µLs of Milli-Q deionized water.
Multiple-reaction monitoring of […]
Extracts were vortexed for 5 minutes
75 µL of extract was combined
HPLC-MS was performed as previously specified.

[5] = i.v. 5 mg kg^−1
epoxide hydrolase EphF = format: biochemical, M. tuberculosis
MTB [6] = test: Checkerboard assay with ethionamide; format: cell-based, M. tuberculosis; conditions: combination with ethionamide
in vivo [7] = conditions: female, CD-1, mouse
Mtb H37Ra proteome = format: cell-based
M. smegmatis DSM43756 = test: MIC / in-house urea library screen against M. smegmatis; format: cell-based; conditions: read-out: MIC M. smegmatis (Msm)
[8] = system: MmpL3 underexpressing (−ATc) Mtb H37Rv; format: cell-based, M. tuberculosis
LepB = test: FRET assay with membrane-bound LepB; conditions: M. smegmatis membranes
Mtb [9] = conditions: strain not stated; cited from earlier work
[10] = Mycobacterium tuberculosis, H37RV
[11] = HeLa, read-out: MTT assay IC50 95% confidence interval (CI)
[12] = Mycolicibacterium smegmatis, DSM43756

MmpL3, sequence (P9WJV5 whole entry): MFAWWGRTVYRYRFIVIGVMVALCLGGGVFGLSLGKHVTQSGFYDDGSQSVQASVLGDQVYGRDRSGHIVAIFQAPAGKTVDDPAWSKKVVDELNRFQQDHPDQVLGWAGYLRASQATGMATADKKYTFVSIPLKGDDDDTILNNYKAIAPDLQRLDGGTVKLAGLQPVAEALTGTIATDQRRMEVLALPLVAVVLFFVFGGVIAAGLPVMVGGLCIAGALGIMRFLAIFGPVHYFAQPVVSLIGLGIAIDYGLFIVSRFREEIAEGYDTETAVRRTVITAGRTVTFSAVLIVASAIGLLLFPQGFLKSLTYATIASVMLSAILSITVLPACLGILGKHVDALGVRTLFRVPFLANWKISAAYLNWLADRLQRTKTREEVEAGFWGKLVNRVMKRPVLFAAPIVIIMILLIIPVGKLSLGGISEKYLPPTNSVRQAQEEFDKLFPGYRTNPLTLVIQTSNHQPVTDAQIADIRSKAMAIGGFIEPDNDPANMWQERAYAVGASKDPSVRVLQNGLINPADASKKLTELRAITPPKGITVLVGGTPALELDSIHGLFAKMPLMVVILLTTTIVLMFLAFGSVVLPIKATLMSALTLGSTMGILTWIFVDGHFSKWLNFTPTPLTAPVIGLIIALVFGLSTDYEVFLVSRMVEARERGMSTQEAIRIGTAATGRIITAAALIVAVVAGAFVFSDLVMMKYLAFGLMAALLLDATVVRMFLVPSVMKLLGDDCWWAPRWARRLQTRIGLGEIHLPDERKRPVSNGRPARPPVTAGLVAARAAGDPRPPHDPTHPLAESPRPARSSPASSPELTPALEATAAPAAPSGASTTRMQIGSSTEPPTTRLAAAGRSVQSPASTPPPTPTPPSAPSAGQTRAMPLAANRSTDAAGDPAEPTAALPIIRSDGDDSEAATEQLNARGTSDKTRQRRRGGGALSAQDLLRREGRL

## O=C(Nc1ccc(Cl)c(OC(F)(F)F)c1)NC1CCCCC1 [Compound 1]
M. tuberculosis H37Ra
  MIC: 3.13 µM (≈ 1.05 µg/mL)

## O=C(Nc1cc(C(F)(F)F)c(Cl)cn1)NC1CCCCC1 [Compound 2]
M. tuberculosis H37Ra
  MIC: > 50 µM

## CC1(NC(=O)Nc2ccc(Cl)c(C(F)(F)F)c2)CCCC1 [Compound 3]
M. tuberculosis H37Ra
  MIC MTB H37Ra: 0.39 µM (≈ 0.125 µg/mL)
  MIC: 0.4 µM (≈ 0.128 µg/mL)

## CC1(NC(=O)Nc2ccc(F)c(C(F)(F)F)c2)CCCC1 [Compound 4]
M. tuberculosis H37Ra
  MIC: 3.13 µM (≈ 0.952 µg/mL)

## CC1(NC(=O)Nc2ccccc2)CCCC1 [Compound 5]
M. tuberculosis H37Ra
  MIC: 25 µM (≈ 5.46 µg/mL)

## CC1(NC(=O)Nc2ccc(F)c(F)c2F)CCCC1 [Compound 6]
M. tuberculosis H37Ra
  MIC: > 50 µM

## CC1(NC(=O)Nc2ccc(F)c(F)c2)CCCC1 [Compound 7]
M. tuberculosis H37Ra
  MIC: 25 µM (≈ 6.36 µg/mL)

## CC1(NC(=O)Nc2cc(F)c(F)c(F)c2)CCCC1 [Compound 8]
M. tuberculosis H37Ra
  MIC: 25 µM (≈ 6.81 µg/mL)

## O=C(Nc1ccc(Cl)c(C(F)(F)F)c1)NC1CCCC1 [Compound 9]
M. tuberculosis H37Ra
  MIC MTB H37Ra: 3.13 µM (≈ 0.96 µg/mL)
  MIC: 3.2 µM (≈ 0.981 µg/mL)

## O=C(Nc1ccc(Cl)c(C(F)(F)F)c1)NC1CCC1 [Compound 10]
M. tuberculosis H37Ra
  MIC: 25 µM (≈ 7.32 µg/mL)

## O=C(Nc1ccc(Cl)c(C(F)(F)F)c1)NC1CC1 [Compound 11]
M. tuberculosis H37Ra
  MIC: > 50 µM

## CC1(NC(=O)Nc2ccc(Cl)c(C(F)(F)F)c2)CCCCC1 [Compound 12]
M. tuberculosis H37Ra
  MIC MTB H37Ra: 0.10 µM (≈ 0.0335 µg/mL)
  MIC: 0.1 µM (≈ 0.0335 µg/mL)
[1]
  effect on bacteria from the Oligo-Mouse-Microbiota: not affected
physchem
  solubility kinetic at 5 min: 12 µM (≈ 4.02 µg/mL)
MmpL3
  TDM/TMM ratio compared with 227: even lower TDM/TMM ratios
[2]
  competition of 227-p1 labelling of EphF and EphD: weaker competition
WT M. tuberculosis H37Rv; [10]
  IC50: 0.11 µM
  MIC90: 0.2 µM (≈ 0.067 µg/mL)

## CC1CCCCC1NC(=O)Nc1ccc(Cl)c(C(F)(F)F)c1 (centres unmarked) [Compound 13]
M. tuberculosis H37Ra
  MIC: 0.39 µM (≈ 0.131 µg/mL)

## CC1CCCC(NC(=O)Nc2ccc(Cl)c(C(F)(F)F)c2)C1 (centres unmarked) [Compound 14]
M. tuberculosis H37Ra
  MIC: 0.39 µM (≈ 0.131 µg/mL)

## CC1CCC(NC(=O)Nc2ccc(Cl)c(C(F)(F)F)c2)CC1 (centres unmarked) [Compound 15]
M. tuberculosis H37Ra
  MIC: 0.39 µM (≈ 0.131 µg/mL)

## O=C(Nc1ccc(Cl)c(C(F)(F)F)c1)NC1(CO)CCCCC1 [Compound 16]
M. tuberculosis H37Ra
  MIC: 3.13 µM (≈ 1.1 µg/mL)

## O=C(Nc1ccc(Cl)c(C(F)(F)F)c1)NC12CC3CC(CC(O)(C3)C1)C2 [Compound 18]
M. tuberculosis H37Ra
  MIC: 6.25 µM (≈ 2.43 µg/mL)

## O=C(Nc1ccc(Cl)c(C(F)(F)F)c1)NC12CC(C1)C2 [Compound 19]
M. tuberculosis H37Ra
  MIC: 12.5 µM (≈ 3.81 µg/mL)

## CC1(C)OCC(NC(=O)Nc2ccc(Cl)c(C(F)(F)F)c2)CO1 [Compound 20]
M. tuberculosis H37Ra
  MIC: 3.13 µM (≈ 1.1 µg/mL)

## O=C(Nc1ccc(Cl)c(C(F)(F)F)c1)NC1COC2(CCC2)OC1 [Compound 21]
M. tuberculosis H37Ra
  MIC MTB H37Ra: 0.78 µM (≈ 0.285 µg/mL)
  MIC: 0.8 µM (≈ 0.292 µg/mL)
[1]
  effect on bacteria from the Oligo-Mouse-Microbiota: not affected; also recorded: does not kill
HeLa cells; [11]
  IC50: 52 to 97 µM
HeLa cells; HeLa cells, 24 h, read-out: IC50 MTT assay
  IC50: 71 µM
[3]
  membrane disruption (propidium iodide entry): Neither 227 nor 21 disrupt the membrane
In vitro
  half-life at 5 µM: 8 min
  microsomal CLint at 5 µM: 88 µL/min/mg
physchem
  solubility kinetic at 5 min: > 200 µM
In vivo [4]
  estimated time above MIC: approximately 16 hours
In vivo [4]; po, 200 mg/kg
  F: 24.3%
  AUC: 45.7 µM·h
  bioavailability: 25.3%
In vivo [4]; po, 400 mg/kg
  AUC: 73.3 µM·h
  bioavailability: 20.4%
[5]
  CD: 3.38 L/kg
  Clearance: 50.82 mL/(kg*min]
MmpL3
  TDM/TMM ratio compared with 227: even lower TDM/TMM ratios
Epoxide hydrolase EphF
  EphF inhibition: inhibits EphF, albeit to a lesser extent
[2]
  competition of 227-p1 labelling of EphF and EphD: weaker competition
MTB [6]
  fractional inhibitory concentration (FIC) index: 0.83
In vivo [7]; iv, 5 mg/kg
  AUC: 4.58 µM·h
  Cmax: 6.27 µM
  half-life: 46.2 min
In vivo [7]; po, 25 mg/kg
  AUC: 9.54 µM·h
  Cmax: 4.04 µM
  bioavailability: 42.5%
Mtb H37Ra proteome; full proteome, Mtb H37Ra, 0.5 µM
  MmpL3 abundance, Student's T-test Difference DMJB-04 0.5 µM vs DMSO: 0.4086
WT M. tuberculosis H37Rv; [10]
  IC50: 0.85 µM
  MIC90: 1.8 µM (≈ 0.657 µg/mL)

## O=C(Nc1ccc(Cl)c(C(F)(F)F)c1)NC1CCC2(CC1)OCCO2 [Compound 22]
M. tuberculosis H37Ra
  MIC: 1.56 to 3.13 µM (≈ 0.591 to 1.19 µg/mL)
physchem
  solubility kinetic at 5 min: 112 µM (≈ 42.4 µg/mL)

## CC1(NC(=O)Nc2ccc(Cl)c(C(F)(F)F)c2)COC2(CCC2)OC1 [Compound 23]
M. tuberculosis H37Ra
  MIC MTB H37Ra: 6.25 to 12.5 µM
  MIC: 6.25 µM (≈ 2.37 µg/mL)
physchem
  solubility kinetic at 5 min: 58 µM (≈ 22 µg/mL)

## C#CCCC1(CCOC(=O)c2ccc(NC(=O)Nc3ccccc3)cc2)N=N1 [Compound 150-pi]
M. tuberculosis H37Ra
  MIC MTB H37Ra: inactive

## C#CC1(NC(=O)Nc2ccc(N=[N+]=[N-])cc2)CCCCC1 [Compound 227-p1]
M. smegmatis DSM43756; [12]
  MIC: 6.25 µM (≈ 1.77 µg/mL)
M. tuberculosis H37Ra
  MIC: 25 µM (≈ 7.08 µg/mL)
[2]; 5 μM 227-p1, Mtb
  EphD and EphF enrichment by probe: significantly enriched

## C#CCCC1(CCOC(=O)c2ccc(NC(=O)NC3CCCCC3)cc2)N=N1 [Compound 227-p2]
M. smegmatis DSM43756; [12]
  MIC: > 50 µM
M. tuberculosis H37Ra
  MIC: > 50 µM

## C#CCCC1(CCOC(=O)C2CCC(NC(=O)Nc3ccc(Cl)c(C(F)(F)F)c3)CC2)N=N1 (centres unmarked) [Compound 227-p3]
M. smegmatis DSM43756; [12]
  MIC: > 50 µM
M. tuberculosis H37Ra
  MIC: > 50 µM

## O=C(Nc1ccc(Cl)c(C(F)(F)F)c1)NC1CCCCC1 [Compound 227]
M. tuberculosis H37Ra
  MIC: 1.56 to 3.13 µM (≈ 0.5 to 1 µg/mL)
HeLa cells; [11]
  IC50: 15 to 37 µM
[3]
  membrane disruption (propidium iodide entry): Neither 227 nor 21 disrupt the membrane
physchem
  solubility kinetic at 5 min: 55 µM (≈ 17.6 µg/mL)
[5]
  Clearance: fast clearance
Epoxide hydrolase EphF
  EphF inhibition: strong inhibition
[2]
  competition of 227-p1 labelling of EphF and EphD: strongly out-competed; also recorded: out-competed
In vivo [7]; po, 25 mg/kg
  bioavailability: 8.6%
WT M. tuberculosis H37Rv
  MIC: 1.8 µM (≈ 0.577 µg/mL)
WT M. tuberculosis H37Rv; [10]
  IC50: 1.3 µM
  MIC: 1.8 µM (≈ 0.577 µg/mL)
  MIC90: 2.5 µM (≈ 0.802 µg/mL)

## O=C(Nc1cc(C(F)(F)F)cc(C(F)(F)F)c1)Nc1ccc(Cl)c(OC(F)(F)F)c1 [Compound 275]
M. smegmatis DSM43756; [12]
  MIC: 0.8 µM (≈ 0.373 µg/mL)

## CC[C@@H](CO)NCCN[C@@H](CC)CO [Ethambutol]
[8]
  susceptibility shift in MmpL3 under-expressing strain: no significant shifts

## O=C(Nc1ccc2c(c1)OC(F)(F)O2)Nc1ccc(Cl)c(C(F)(F)F)c1 [PK150]
M. smegmatis DSM43756
  MIC: 3.1 µM (≈ 1.22 µg/mL)
LepB
  modulation of LepB activity: not a target; also recorded: did not show any inhibition
Mtb [9]
  MIC against Mtb: 6.25 µM (≈ 2.47 µg/mL)

## CC(C)=CCC/C(C)=C/CNCCNC1C2CC3CC(C2)CC1C3 (centres unmarked) [SQ109, reference compound]
Mtb H37Ra proteome; full proteome (FP), protein Rv3587c (O53572), probable conserved membrane protein
  dysregulated in FP?: slightly upregulated with SQ109 treatment
